What is called GI50 is the concentration that inhibits growth by half. Low readings indicate greater sensitivity of the cells, high ones lower sensitivity of the cells. The term IC50 denotes the concentration needed to halve the response being measured. Low values mean inhibition by little substance, high ones a need for much substance.

Bounds are passed on as bounds.

This is an account of results in patent US20250388605A1, “HETEROBIFUNCTIONAL COMPOUNDS AND METHODS OF TREATING DISEASE” (Halda Therapeutics OpCo, Inc., priority 2022, published 2025).

The subject of assay [1] is T-Rex 293 cell line SC cells having increased expression of progesterone receptor isoform B protein. Briefly: Cellular growth inhibition assay, T-Rex 293 SC cells exposed to doxycycline (increased progesterone receptor isoform B expression), CellTiter-Glo. The format is cell-based. The following applies: T-Rex 293 SC cells with 10 ng/mL doxycycline (increased PR isoform B), 72 hours. The method, then:
(§1) The SC cells were seeded on poly-D-lysine coated, black clear-bottom 384-well plates at 2500/well, in 25 μL Phenol Red Free Dulbecco's Modified Eagle Medium (DMEM) supplemented with 10% w/w charcoal-dextran treated fetal bovine serum (FBS) and 1% w/w pen-strep, with or without 10 ng/mL doxycycline. Pen-Strep is a commercially available mixture of penicillin G and streptomycin, which is used in mammalian cell culture media to prevent bacterial contamination. Phenol Red Free Dulbecco's Modified Eagle Medium (DMEM) supplemented with 10% w/w charcoal-dextran treated fetal bovine serum (FBS) and 1% w/w pen-strep, with or without 10 ng/mL doxycycline is herein referred to as Treatment Medium. Following seeding of cells in the plates, the plates were spun at 300×g for 30 seconds, then equilibrated to room temperature for 30 minutes, and then deposited in a humidified tissue culture incubator maintained at 37° C. with 5% CO2.
(§2) At 24 hours after seeding of the cells, dilutions of test compound were prepared in DMSO and dissolved in Treatment Medium, to achieve a final DMSO concentration of 0.5% w/w, thereby providing the Test Compound Solution. A 25 μL aliquot of the Test Compound Solution was added to cells in the well plates. An equal volume of a solution containing DMSO and Treatment Medium was used as a negative control. Following treatment of cells with Test Compound Solution or said equal volume of a solution containing DMSO and Treatment Medium, the plates were spun at 300×g for 30 seconds, and then left in an incubator for 72 hours.
(§3) At the end of the treatment duration, cell viability was quantified with CellTiter-Glo 2.0 reagent (Promega Cat #G9243). For this purpose, plates were equilibrated to room temperature for 30 minutes, and then 25 μL of CellTiter-Glo 2.0 reagent was added to cells in the plate wells. Plates were then agitated on a shaker for two minutes at 500 rpm and subsequently incubated at room temperature for 10 minutes. Following incubation, the plates were spun at 3000×g for 30 seconds, then sealed with an optical adhesive cover, and luminescence readings were measured with an EnVision Plate Reader (Perkin Elmer).
(§4) Data was normalized using zero luminescence for baseline. A four-parameter non-linear regression curve fit was applied to dose-response data in GraphPad Prism data analysis software to determine the half-maximal growth inhibitory concentration (GI50) for each test compound.
(In ATP-based viability assays light output follows the ATP content of the culture.)

A further assay relates to T47D cells. Nature of the assay: Cellular Growth Inhibition Assay for T47D Cells (CellTiter-Glo). The format is cell-based, human. The note with it: 72 hours. The gist of the method: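 GI50 values derive from four-parameter regression of CellTiter-Glo 2.0 luminescence, using zero luminescence as baseline. Human breast cancer T47D cells (3000/well; DMEM, 10% FBS, 0.2 units/mL insulin) were exposed for 72 h to compound dilutions at 0.5% DMSO, with dosing starting 24 h after seeding.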

Another assay deals with VCaP cells. Nature of the assay: Cellular growth inhibition assay for VCaP cells, CellTiter-Glo. The format is cell-based, human. The note with it: 72 hours. The gist of the method: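 GI50 values come from four-parameter curve fits of luminescence data normalized to a zero baseline. Compound, in medium with 0.5% DMSO, was added one day after plating and left for 72 h before CellTiter-Glo 2.0 addition.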

Assay [2] relates to T-Rex 293 cell line SC3 cells lacking increased expression of androgen receptor protein. Nature of the assay: Cellular growth inhibition, T-Rex 293 SC3 cells without doxycycline (no increased androgen receptor expression), CellTiter-Glo. The note with it: T-Rex 293 SC3 cells not exposed to doxycycline (no increased androgen receptor expression), 72 hours. The format is cell-based. The gist of the method:
(§5)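 Doxycycline (10 ng/mL) was either included or omitted to toggle wild-type androgen receptor expression in SC3 cells, a T-Rex 293 clone, grown in stripped-serum, phenol red-free medium. After 72 hours with compound, viable cells were quantified by CellTiter-Glo 2.0.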

The test system of assay [3] is T-Rex 293 cell line SC cells lacking increased expression of progesterone receptor isoform B protein. Nature of the assay: Cellular growth inhibition assay, T-Rex 293 SC cells not exposed to doxycycline (no increased progesterone receptor isoform B expression), CellTiter-Glo. Type of assay: cell-based. The following applies: T-Rex 293 SC cells without doxycycline (no increased PR isoform B), 72 hours. The method, then: as §1, §2, §3, §4

Assay [4] relates to T-Rex 293 cell line SC3 cells having increased expression of androgen receptor protein due to exposure to doxycycline. Nature of the assay: Cellular growth inhibition, T-Rex 293 SC3 cells with doxycycline (increased androgen receptor expression), CellTiter-Glo. Type of assay: cell-based. The note with it: T-Rex 293 SC3 cells with 10 ng/mL doxycycline (increased androgen receptor expression), 72 hours, CellTiter-Glo 2.0. The gist of the method: as §5

Assay [5] deals with T1, progesterone receptor ligand binding domain (GST-tagged PR LBD) (Homo sapiens, UniProt P06401).
T1 construct: purchased Life Technologies A15905 or a15906
T1 sequence (P06401 679-913 limits assumed): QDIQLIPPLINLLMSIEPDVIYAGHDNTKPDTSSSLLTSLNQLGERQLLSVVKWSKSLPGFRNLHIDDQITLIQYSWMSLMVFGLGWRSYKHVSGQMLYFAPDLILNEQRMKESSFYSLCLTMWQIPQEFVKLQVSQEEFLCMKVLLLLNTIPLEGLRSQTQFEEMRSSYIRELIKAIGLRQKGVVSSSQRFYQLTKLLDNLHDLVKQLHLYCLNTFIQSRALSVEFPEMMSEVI
Briefly: FP Assay for Binding Affinity to Progesterone Receptor (PolarScreen Progesterone Receptor Competitor Assay Kit). The following applies: fluorescence polarization, Fluormone tracer, 2 hours at room temperature. The method, then: Exemplary compounds were tested for ability to bind to the progesterone receptor ligand binding domain (LBD).
Compounds were tested using the PolarScreen™ Progesterone Receptor Competitor Assay Kit (Life Technologies Cat #A15905 or a15906), as per the manufacturer's instructions. Briefly, GST-tagged PR LBD, Fluormone tracer, and compound were mixed and incubated for 2 hours at room temperature in the dark. Following incubation, the plates were spun at 3000×g for 30 seconds, then sealed with an optical adhesive cover, and fluorescence polarization was measured using appropriate excitation and emission filters with an EnVision Plate Reader (Perkin Elmer). Compound concentration vs. mP value were plotted in Prism (GraphPad). A four-parameter non-linear regression curve fit was applied to dose-response data to determine the half-maximal inhibitory concentration (IC50) for each test compound.
On the technique in general: In fluorescence polarisation assays a small probe gives low polarisation when free and higher when bound to something large.

`CCS(=O)(=O)Nc1ccc(Oc2cccc(OC3CC4(CCN(c5ncc(C(=O)N[C@H]6C(C)(C)[C@H](Oc7ccc(C#N)c(Cl)c7)C6(C)C)cn5)CC4)C3)c2)c(-c2cn(C)c(=O)c3[nH]ccc23)c1` [Compound I-44]: the GI50 was less than 500 nM in assay [1]; less than 500 nM in the assay with T47D cells (Homo sapiens); less than 500 nM with VCaP cells (Homo sapiens); greater than 3000 nM in assay [2]; greater than 3000 nM in assay [3]; less than 500 nM in assay [4].

Consider `CCS(=O)(=O)Nc1ccc(Oc2cccc(N3CC(C4CCN(c5ncc(C(=O)N[C@H]6C(C)(C)[C@H](Oc7ccc(C#N)c(Cl)c7)C6(C)C)cn5)CC4)C3)c2)c(-c2cn(C)c(=O)c3[nH]ccc23)c1` [Compound I-74], for which the GI50 (in the assay with T47D cells (Homo sapiens); with VCaP cells (Homo sapiens); in assay [2]; in assay [4]) was less than 500 nM in each case. This compound also had an IC50 in assay [5] greater than 2500 nM.

Turning to `CCS(=O)(=O)Nc1ccc(Oc2cccc(N3CC(OC4CCN(c5ncc(C(=O)N[C@H]6C(C)(C)[C@H](Oc7ccc(C#N)c(Cl)c7)C6(C)C)cn5)CC4)C3)c2F)c(-c2cn(C)c(=O)c3[nH]ccc23)c1` [Compound I-175], the GI50 is less than 500 nM in assay [1]; less than 500 nM with T47D cells; less than 500 nM in the assay with VCaP cells; less than 500 nM in assay [2]; greater than 3000 nM in assay [3]; less than 500 nM in assay [4].

On to `CN(CCc1ccc(Oc2ccc(C(C)(C)O)cc2-c2cn(C)c(=O)c3[nH]ccc23)cc1)c1ncc(C(=O)N[C@H]2C(C)(C)[C@H](Oc3ccc(C#N)c(Cl)c3)C2(C)C)cn1` [Compound I-198], for which the GI50 (in assay [1]; in the assay on T47D cells (Homo sapiens); in the assay with VCaP cells (Homo sapiens); in assay [2]; in assay [3]; in assay [4]) was less than 500 nM each time.

On to `CN(CCOc1ccc(Oc2ccc(C(C)(C)O)cc2-c2cn(C)c(=O)c3[nH]ccc23)cc1)c1ncc(C(=O)N[C@H]2C(C)(C)[C@H](Oc3ccc(C#N)c(Cl)c3)C2(C)C)cn1` [Compound I-199], for which the GI50 (in assay [1]; with T47D cells (Homo sapiens); with VCaP cells (Homo sapiens); in assay [2]; in assay [3]; in assay [4]) was less than 500 nM in each case.

With `CN(CCCOc1ccc(Oc2ccc(C(C)(C)O)cc2-c2cn(C)c(=O)c3[nH]ccc23)cc1)c1ncc(C(=O)N[C@H]2C(C)(C)[C@H](Oc3ccc(C#N)c(Cl)c3)C2(C)C)cn1` [Compound I-200], the GI50 is less than 500 nM in assay [1]; 500 to 1500 nM with T47D cells (Homo sapiens); less than 500 nM in the assay on VCaP cells (Homo sapiens); 500 to 1500 nM in assay [2]; less than 500 nM in assay [3]; less than 500 nM in assay [4].

In the case of `CCS(=O)(=O)c1ccc(Oc2cccc(CCCOC3CC4(C3)CN(c3ncc(C(=O)N[C@H]5C(C)(C)[C@H](Oc6ccc(C#N)c(Cl)c6)C5(C)C)cn3)C4)c2F)c(-c2cn(C)c(=O)c3[nH]ccc23)c1` [Compound I-205], the GI50 (in assay [1]; in the assay on T47D cells (Homo sapiens); in the assay on VCaP cells (Homo sapiens); in assay [2]; in assay [3]; in assay [4]) was less than 500 nM in each case.

Take `CCS(=O)(=O)c1ccc(Oc2cccc(CCCCN3CC4(C3)CN(c3ncc(C(=O)N[C@H]5C(C)(C)[C@H](Oc6ccc(C#N)c(Cl)c6)C5(C)C)cn3)C4)c2F)c(-c2cn(C)c(=O)c3[nH]ccc23)c1` [Compound I-206]: the GI50 (in assay [1]; in the assay on T47D cells (Homo sapiens); in the assay on VCaP cells (Homo sapiens); in assay [2]; in assay [3]; in assay [4]) was less than 500 nM throughout.

With `CCS(=O)(=O)c1ccc(Oc2ccc(OCC3CCN(c4ncc(C(=O)N[C@H]5C(C)(C)[C@H](Oc6ccc(C#N)c(Cl)c6)C5(C)C)cn4)CC3)cc2)c(-c2cn(C)c(=O)c3[nH]ccc23)c1` [Compound I-213], the GI50 (in assay [1]; with T47D cells; in the assay on VCaP cells; in assay [2]; in assay [3]; in assay [4]) was less than 500 nM throughout.

`Cn1cc(-c2cc(C(C)(C)O)ccc2Oc2ccc(N3CC(C4CCN(c5ncc(C(=O)N[C@H]6C(C)(C)[C@H](Oc7ccc(C#N)c(Cl)c7)C6(C)C)cn5)CC4)C3)cc2)c2cc[nH]c2c1=O` [Compound I-299]: the GI50 is less than 500 nM in assay [1]; less than 500 nM in the assay on T47D cells; less than 500 nM in the assay on VCaP cells; greater than 3000 nM in assay [2]; 500 to 1500 nM in assay [3]; less than 500 nM in assay [4].

As for `Cn1cc(-c2cc(C(C)(C)O)ccc2Oc2ccc(N3CC(OC4CN(c5ncc(C(=O)N[C@H]6C(C)(C)[C@H](Oc7ccc(C#N)c(Cl)c7)C6(C)C)cn5)C4)C3)cc2)c2cc[nH]c2c1=O` [Compound I-303], the GI50 was less than 500 nM in assay [1]; less than 500 nM in the assay with T47D cells; less than 500 nM in the assay with VCaP cells; less than 500 nM in assay [2]; 500 to 1500 nM in assay [3]; less than 500 nM in assay [4].

In the case of `Cn1cc(-c2cc(C(C)(C)O)ccc2Oc2ccc(C3CN(C4CCN(c5ncc(C(=O)N[C@H]6C(C)(C)[C@H](Oc7ccc(C#N)c(Cl)c7)C6(C)C)cn5)CC4)C3)cc2)c2cc[nH]c2c1=O` [Compound I-304], the GI50 in assay [1] is less than 500 nM; with T47D cells, less than 500 nM; in the assay with VCaP cells, less than 500 nM; in assay [2], less than 500 nM; in assay [3] it was 500 to 1500 nM; in assay [4] it was less than 500 nM.

Turning to `Cn1cc(-c2cc(C(C)(C)O)ccc2Oc2ccc(N3CC(CC4CN(c5cnc(C(=O)N[C@H]6C(C)(C)[C@H](Oc7ccc(C#N)c(Cl)c7)C6(C)C)cn5)C4)C3)cc2)c2cc[nH]c2c1=O` [Compound I-317], the GI50 in assay [1] is less than 500 nM; in the assay on T47D cells (Homo sapiens) it was less than 500 nM; with VCaP cells (Homo sapiens) it was less than 500 nM; in assay [2] it was less than 500 nM; in assay [3], 500 to 1500 nM; in assay [4], less than 500 nM.

Take `Cn1cc(-c2cc(C(C)(C)O)ccc2Oc2ccc(N3CC(CC4CN(c5ccc(C(=O)N[C@H]6C(C)(C)[C@H](Oc7ccc(C#N)c(Cl)c7)C6(C)C)nc5)C4)C3)cc2)c2cc[nH]c2c1=O` [Compound I-322]: the GI50 was less than 500 nM in assay [1]; less than 500 nM in the assay on T47D cells; 500 to 1500 nM in the assay on VCaP cells; 1500 to 3000 nM in assay [2]; 1500 to 3000 nM in assay [3]; less than 500 nM in assay [4].
